Measurements reported in publication PMC11272598, “RG7774 (Vicasinabin), an orally bioavailable cannabinoid receptor 2 (CB2R) agonist, decreases retinal vascular permeability, leukocyte adhesion, and ocular inflammation in animal models” (Frontiers in Pharmacology, 2024).
Several values for one entry are separate records, joined by “and”; a condition that tells them apart may be missing. Equal entries are not always repeated.

Assays:
[1] = biological target: T1, endogenous CB2R in mouse spleen tissues (Mus musculus, UniProt P47936); assay: Competition binding, [^3H]-RO6753361, mouse spleen membranes
T1 construct: from tissue; host or cells: mouse spleen membranes
T1 sequence (P47936 whole entry): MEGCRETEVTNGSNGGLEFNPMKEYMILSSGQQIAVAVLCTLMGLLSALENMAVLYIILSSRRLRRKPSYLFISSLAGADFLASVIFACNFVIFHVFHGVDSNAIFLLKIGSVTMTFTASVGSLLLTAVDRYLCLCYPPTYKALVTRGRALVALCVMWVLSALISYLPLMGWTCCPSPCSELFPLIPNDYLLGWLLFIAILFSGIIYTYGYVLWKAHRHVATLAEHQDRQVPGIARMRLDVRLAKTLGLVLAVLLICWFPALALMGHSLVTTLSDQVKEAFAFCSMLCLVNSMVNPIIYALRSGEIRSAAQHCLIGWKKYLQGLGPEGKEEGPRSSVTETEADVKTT
Protocol: Competition and saturation binding assays were performed using the radiolabeled CB1R/CB2R agonist [^3H]-CP55940 (PerkinElmer, Waltham, MA, United States) in recombinant cell systems, and the newly developed CB2R-selective agonist [^3H]-RO6753361 ([Chicca et al., 2024]) in cells expressing endogenous CB1R/CB2R. Competition assays were conducted by incubating 5, 40, or 40 µg of membrane protein from CHO cells, Jurkat cells or spleen cells, respectively, with 1.5 nM [^3H]-CP55940 or 1.5 nM [^3H]-RO6753361 in the presence or absence of increasing concentrations of ligand (RG7774 or control) for 2 h at 30°C in a final volume of 0.2 mL of assay buffer (50 mmol/L Tris-HCl, 5 mmol/L MgCl2, 2.5 mmol/L EDTA, and 0.5% fatty acid-free BSA [pH 7.4] and 1% DMSO), with gentle shaking. Saturation binding assays were conducted by incubating 1–3 μg, 40 μg, or 30–40 μg of membrane protein from CHO cells, Jurkat cells, or spleen tissue, respectively, with 12 concentrations in the range of 80–0.039 nM [^3H]-CP55940 or [^3H]-RO6753361 for 2 h at 30°C in a final volume of 0.2 mL/well of assay buffer without DMSO. […] IC50 values and Hill slopes were determined with a 4-parameter logistic model using ActivityBase (ID Business Solution, Guilford, United Kingdom) and pKi values were determined using the Cheng-Prusoff equation ([Cheng and Prusoff, 1973]).

Jurkat cells = assay: xCELLigence impedance assay in Jurkat cells; format: cell-based, human; conditions: xCELLigence, 1 h
Protocol: Background impedance was determined in 96-well RTCA E-plates (Agilent Technologies, Santa Clara, CA, United States) coated with 150 μg/mL fibronectin/H2O (Sigma-Aldrich, St. Louis, MO, United States) and containing 50 μL RPMI 1640 assay medium (Fisher Scientific, Schwerte, Germany) 31870) with 10% fetal calf serum (FCS). Jurkat cells (200,000 cells per well) were seeded in 100 μL of growth medium, allowed to settle for 30 min at RT, and cultured overnight at 37°C and 5% CO2. Dose-response curves were generated by adding increasing concentrations of RG7774 to seeded Jurkat cells and performing impedance measurements (xCelligence RTCA M, Agilent Technologies, Santa Clara, CA, United States) at baseline and 1 h after treatment. Displacement experiments were performed by incubating seeded Jurkat cells with 10 μM SR144528, a CB2R-selective antagonist (Tocris Bioscience, Bristol, United Kingdom) or 10 μM RO6851228 (a CB2R-selective inverse agonist; in-house synthesis) in assay medium overnight at 37°C and 5% CO2. Cells were re-treated with 10 μM SR144528 or […] for 1 h and stimulated with 233 nM RG7774 in assay medium. […] Displacement data are presented as the percentage of the maximal normalized cell index determined after antagonist/inverse agonist treatment relative to the percentage of the normalized cell index at 109 nM RG7774 treatment.

[2] = GSH adduct formation in human liver microsomes; format: in vitro ADME
Protocol: GSH adduct formation assays were conducted as previously described. Briefly, RG7774 was incubated with human liver microsomes to form reactive metabolites, and glutathione was added as a nucleophile to convert the reactive metabolites into stable conjugates that could be analyzed by MS.

human CB1R = human CB1R (Homo sapiens, UniProt P21554); assay: Forskolin-stimulated cAMP assay in CHO cells; format: cell-based; set-up: bgal (beta-galactosidase fragment of the PathHunter system); host or cells: CHO-K1; conditions: recombinant CHO cells
Chain of human CB1R (P21554 whole entry, the tested form may be a part): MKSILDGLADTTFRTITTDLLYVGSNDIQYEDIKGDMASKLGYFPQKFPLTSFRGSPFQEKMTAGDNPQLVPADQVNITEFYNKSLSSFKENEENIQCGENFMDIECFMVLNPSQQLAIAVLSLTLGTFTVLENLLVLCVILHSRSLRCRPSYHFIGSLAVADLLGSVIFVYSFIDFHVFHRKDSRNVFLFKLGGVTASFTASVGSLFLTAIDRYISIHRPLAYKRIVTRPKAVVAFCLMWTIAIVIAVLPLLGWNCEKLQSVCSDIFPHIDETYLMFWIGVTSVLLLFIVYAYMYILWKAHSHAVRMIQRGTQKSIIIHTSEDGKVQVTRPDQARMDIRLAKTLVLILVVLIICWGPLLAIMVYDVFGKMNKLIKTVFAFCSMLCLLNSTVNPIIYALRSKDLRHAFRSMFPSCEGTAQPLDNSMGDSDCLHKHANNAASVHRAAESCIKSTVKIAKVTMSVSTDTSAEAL
Protocol: The inhibitory effects of RG7774 on forskolin-stimulated accumulation of cAMP were determined using the cAMP-Nano-TRF detection kit (Roche Diagnostics, Penzberg, Germany), as previously described ([Porter et al., 2019]). CHOK1hCB1_bgal, CHOK1mCB2_bgal, and CHOK1hCB2_bgal cells (DiscoveRx, Fremont, CA, United States) were seeded 17–24 h prior to the experiment at a density of 3 × 10^4 cells per well in a black 96-well plate with a flat, clear bottom (Corning, Wiesbaden, Germany) prior to incubating in 5% CO2 at 37°C in a humidified incubator. The growth medium was exchanged with Krebs Ringer bicarbonate buffer containing 1 mM IBMX and 0.1% fatty acid-free BSA and incubated at 30°C for 1 h. RG7774 or positive control (CP55940) (1 µM) was added to a 0.1 mL final assay volume and the mixture was incubated at 30°C for 30 min. The assay was stopped by adding 50 μL 3x lysis reagent and shaking for 2 h at RT. The time-resolved energy transfer was measured using an LF502 Nanoscan FLT (IOM, Berlin, Germany) equipped with a laser excitation source. cAMP content was determined from a standard curve spanning 10–0.13 nM cAMP. Efficacies were expressed as a percentage relative to the positive control.

Cn1nnnc1Cn1nnc2c(N3CC[C@H](O)C3)nc(C(C)(C)C)nc21 [RG7774, (S)-1-(5-tert-butyl-3-[(1-methyl-1H-tetrazol-5-yl)methyl]-3H-[1,2,3]triazolo[4,5-d]pyrimidin-7-yl)pyrrolidin-3-ol]
Ki [1]: 39.7 ± 13.5 nM | EC50, cell index relative to maximal cell index of RG7774 at 233 nM (Jurkat cells): 10.8 nM and 10.8 ± 4.2 nM | GSH (human liver microsomes) adducts [2]: none detected | effect on human CB1R in cAMP assay (human CB1R): no effect
